This note sets out measurements from patent US20260297105A1, “RAF-MEK PROTEIN COMPLEX MODULATORS AND METHODS OF USE THEREOF” (GANDEEVA THERAPEUTICS, INC., priority 2023, published 2026).

Usually IC50 stands for the concentration needed to halve the response being measured.

Some results are limits rather than exact numbers.

The target of the first experiment is T1, MEK1 (Homo sapiens, UniProt Q02750).
T1 construct: purchased SignalChem M02-14H
T1 sequence (Q02750 whole entry): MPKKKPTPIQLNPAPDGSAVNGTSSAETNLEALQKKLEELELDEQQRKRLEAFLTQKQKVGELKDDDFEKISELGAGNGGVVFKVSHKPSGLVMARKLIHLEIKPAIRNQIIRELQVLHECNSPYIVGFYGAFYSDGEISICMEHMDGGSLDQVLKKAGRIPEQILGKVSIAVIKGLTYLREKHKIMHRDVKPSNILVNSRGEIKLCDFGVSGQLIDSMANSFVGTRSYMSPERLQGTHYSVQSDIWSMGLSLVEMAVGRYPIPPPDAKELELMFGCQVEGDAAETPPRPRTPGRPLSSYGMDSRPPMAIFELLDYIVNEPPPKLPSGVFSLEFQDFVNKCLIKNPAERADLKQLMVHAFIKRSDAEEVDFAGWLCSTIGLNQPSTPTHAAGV
T1 sequence (P15056 445-723 partner limits assumed): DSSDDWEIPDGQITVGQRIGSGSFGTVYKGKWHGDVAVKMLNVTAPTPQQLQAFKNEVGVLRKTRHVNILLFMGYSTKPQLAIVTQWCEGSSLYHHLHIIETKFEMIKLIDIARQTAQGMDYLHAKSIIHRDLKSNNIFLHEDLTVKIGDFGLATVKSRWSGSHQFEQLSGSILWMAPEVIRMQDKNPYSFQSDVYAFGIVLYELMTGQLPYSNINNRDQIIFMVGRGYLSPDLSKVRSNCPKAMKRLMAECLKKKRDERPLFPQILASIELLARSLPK
Kind of experiment: MEK1 kinase cascade assay (ADP-Glo), inhibition of MEK1 kinase activity. To be noted: 25 nM BRAF, 6.25 nM MEK1, 0.5 μM ERK, 1 mM ATP; 20 min preincubation, 1 hr at 25° C.; read-out: BRAF ADP Glo kinase assay V3 (IC50). Format: biochemical. An excerpt:
(§1) Protein expression and purification: BRAF (445-723) with N-term His-tag and C-term StrepII tag was expressed using the Expi293 system (ThermoFisher) and purified using Strep-Tactin® XT-Superflow (IBA) chromatography. ERK1 (full-length) with N-term His-tag was expressed in Rosetta DE3 cells (Millipore) and purified using HisTrap HP (Cytiva) and Superdex 200 (Cytiva) column chromatography. Full-length MEK1 for TR-FRET assays with N-term His-tag was expressed in BL21DE3 cells (ThermoFisher) and purified using HisTrap HP (Cytiva) and Superdex 200 (Cytiva) column chromatography.
Efficacy of exemplary compounds in inhibition of MEK1 kinase activity: The effect of compound MEK1 inhibition was evaluated using an ADP detection system for kinases, such as the ADP-Glo assay (Promega). The MEK1 kinase cascade assay consisted of 9 μL reaction volumes in 384-well white, opaque Optiplates (PerkinElmer). Compounds were prepared from DMSO stocks in assay buffer (10 mM HEPES pH 7.5, 5 mM MgCl2, 2 mM CHAPS, and 1 mM DTT) and preincubated with 25 nM BRAF for 20 mins at 25° C. prior to addition of 6.25 nM MEK1/0.5 μM ERK/1 mM ATP premix to initiate the kinase reaction. Both BRAF and ERK1 were produced in-house, and MEK1 was purchased from SignalChem (M02-14H). DMSO was kept constant at a final concentration of 1%. After a 1 hr incubation at 25° C., conversion of ATP to ADP was detected using ADP-Glo™ reagents according to the manufacturer's protocol. Luminescence was measured using a CLARIOstar microplate reader (BMG). Percent (%) Inhibition was calculated by normalizing to DMSO control (max) and 1 μM Trametinib (min). % inhibition as a function of compound concentration from 2 replicate wells was fit with a 4-parameter logistic curve equation using GraphPad Prism or CDD Vault to derive IC50 values.
(§2) In this table, for the BRAF ADP Glo kinase assay, “A” indicates IC50 of less than 5 nM; “B” indicates IC50 of between 5 nM to 50 nM; and “C” indicates IC50 of between 50 nM to 500 nM. “D” indicates IC50 of greater than 500 nM. For the BRAF-MEK TR-FRET assay, “A” indicates EC50 of less than 50 nM; “B” indicates EC50 of between 50 nM to 200 nM; and “C” indicates EC50 of between 200 nM to 1 μM. “D′” indicates EC50 of greater than 1 μM. For the AlphaLisa P-ERK assay, “A” indicates IC50 of less than 1 nM; “B” indicates IC50 of between 1 nM to 10 nM; and “C” indicates IC50 of between 10 nM to 100 nM. “D” indicates IC50 of greater than 100 nM. For the cell viability assay, “A” indicates IC50 of less than 1 nM; “B” indicates IC50 of between 1 nM to 10 nM; and “C” indicates IC50 of between 10 nM to 100 nM. “D” indicates IC50 of greater than 100 nM.
Take `CNS(=O)(=O)Nc1nccc(CN2C(=O)Oc3cc(Oc4cccnn4)cnc3C23CC3)c1F` [Compound 202, 2′-{[3-fluoro-2-(methylaminosulfonylamino)-4-pyridyl]methyl}-6′-(3-pyridazinyloxy)-2′H,3′H-4′-oxa-2′,8′-diazaspiro[cyclopropane-1,1′-naphthalen]-3′-one]: the IC50 was under 5 nM. Same read-out and setting: then `CNS(=O)(=O)Nc1nccc(CN2C(=O)Oc3cc(Oc4cccnn4)ccc3C23COC3)c1F` [Compound 24, 3-({3-fluoro-2-[(methylsulfamoyl)amino]pyridin-4-yl}methyl)-7-(pyridazin-3-yloxy)-2,3-dihydrospiro[1,3-benzoxazine-4,3′-oxetan]-2-one], with 5 to 50 nM; and `CNS(=O)(=O)Nc1nccc(CN2C(=O)Oc3cc(Oc4cccnn4)cc(F)c3C23COC3)c1F` [Compound 178, 5-fluoro-3-{[3-fluoro-2-(methylaminosulfonylamino)-4-pyridyl]methyl}-7-(3-pyridazinyloxy)-2H, 3H-spiro[1,3-benzoxazine-4,3′-oxetan]-2-one], with 5 to 50 nM; and `CNS(=O)(=O)Cc1cccc(CN2C(=O)Oc3cc(OC(=O)N(C)C)ccc3C23COC3)c1F` [Compound 47, 3-({2-fluoro-3-[(methylsulfamoyl)methyl]phenyl}methyl)-2-oxo-2,3-dihydrospiro[1,3-benzoxazine-4,3′-oxetan]-7-yl N,N-dimethylcarbamate], with 50 to 500 nM.

With `O=C1Oc2cc(Oc3cccnn3)ccc2CN1Cc1cccc(N2CCOC2=O)c1F` [Compound 26, 3-{[2-fluoro-3-(2-oxo-1,3-oxazolidin-3-yl)phenyl]methyl}-7-(3-pyridazinyloxy)-3,4-dihydro-2H-1,3-benzoxazin-2-one], the IC50 is 50 to 500 nM. Same read-out and setting: then `CNS(=O)(=O)Nc1cccc(CN2C(=O)Oc3cc(Oc4ccccn4)ccc3C23COC3)c1F` [Compound 50, 3-({2-fluoro-3-[(methylsulfamoyl)amino]phenyl}methyl)-7-(pyridin-2-yloxy)-2,3-dihydrospiro[1,3-benzoxazine-4,3′-oxetan]-2-one], with 5 to 50 nM. Still for that read-out and setting: as for `CNS(=O)(=O)Nc1cccc(CN2C(=O)Oc3cc(Oc4ncco4)c(F)cc3[C@@H]2C)c1F` (single isomer, unassigned) [Compound 84, (S)-6-fluoro-3-({2-fluoro-3-(methylsulfamoyl)amino]phenyl}methyl)-4-methyl-7-(1,3-oxazol-2-yloxy)-3,4-dihydro-2H-1,3-benzoxazin-2-one or (R)-6-fluoro-3-({2-fluoro-3-(methylsulfamoyl)amino]phenyl}methyl)-4-methyl-7-(1,3-oxazol-2-yloxy)-3,4-dihydro-2H-1,3-benzoxazin-2-one], the figure is 5 to 50 nM; as for `CNS(=O)(=O)Nc1nccc(CN2C(=O)Oc3cc(Oc4nc(C)co4)ccc3C23CCC3)c1F` [Compound 182, 3-{[3-fluoro-2-(methylaminosulfonylamino)-4-pyridyl]methyl}-7-(4-methyl-1,3-oxazol-2-yloxy)-2H,3H-spiro[1,3-benzoxazine-4,1′-cyclobutan]-2-one], 5 to 50 nM; as for `CNS(=O)(=O)Nc1cccc(CN2C(=O)Oc3c(ccc(Oc4ncccn4)c3F)C23COC3)c1F` [Compound 88], over 500 nM. For `CNS(=O)(=O)Nc1cccc(CN2C(=O)Oc3c(ccc(Oc4ncccn4)c3F)[C@@H]2C)c1F` (single isomer, unassigned) [Compound 92, (S)-8-fluoro-3-({2-fluoro-3-(methylsulfamoyl)amino]phenyl}methyl)-4-methyl-7-(pyrimidin-2-yloxy)-3,4-dihydro-2H-1,3-benzoxazin-2-one or (R)-8-fluoro-3-({2-fluoro-3-(methylsulfamoyl)amino]phenyl}methyl)-4-methyl-7-(pyrimidin-2-yloxy)-3,4-dihydro-2H-1,3-benzoxazin-2-one], the IC50 fell in the range of 5 to 50 nM. The same measure, in the same setting: as for `CNS(=O)(=O)Nc1cccc(CN2Cc3cc(C)c(Oc4ncccn4)cc3OC2=O)c1F` [Compound 111, 3-({2-fluoro-3-[(methylsulfamoyl)amino]phenyl}methyl)-6-methyl-7-(pyrimidin-2-yloxy)-3,4-dihydro-2H-1,3-benzoxazin-2-one], the figure is 5 to 50 nM.

The next experiment has as its system BRAF-MEK1. Kind of experiment: BRAF-MEK TR-FRET assay, stabilization of MEK1 and BRAF interaction. Format: binding. To be noted: 4 nM BRAF, 10 nM MEK, 100 μM ATP; 1 hr at 25° C.; 60 min; read-out: BRAF-MEK TR-FRET Assay (EC50, fold stabilization).
From the text: as §1
Efficacy of exemplary compounds in stabilization of MEK1 and BRAF interaction: Compound stabilization of BRAF-MEK interaction was evaluated using TR-FRET (Time Resolved Fluorescence Energy Transfer). The FRET assay consisted of His-tagged MEK1 (produced in-house), GST-tagged BRAF (SignalChem, B08-11G), Anti His-Tb Cryptate donor, and Anti GST-XL665 acceptor fluorophores (PerkinElmer) to generate FRET signal upon BRAF-MEK1 binding. Compounds were prepared from DMSO stocks in assay buffer (50 mM Tris pH 7.5, 150 mM NaCl, 1 mM DTT, 0.05% Tween-20, 5 mM MgCl2, and 100 μM ATP) and incubated with 4 nM BRAF and 10 nM MEK for 1 hr at 25° C. 1 ng Anti His-Tb Cryptate/20 ng Anti GST-XL665 premix was then added and incubated for 1 hr at 25° C. TR-FRET was measured using Cytation5 microplate reader (Agilent) using Ex/Em=340/620 nm and Ex/Em=340/665 nm to determine the FRET ratio. Fold stabilization was calculated as FRET signal of treated well/DMSO control. Fold stabilization as a function of compound concentration from 2 replicate wells was fit with a 4-parameter logistic curve equation using GraphPad Prism or CDD Vault to derive EC50 values.
as §2
As to `CNS(=O)(=O)Nc1nccc(CN2C(=O)Oc3cc(Oc4cccnn4)cnc3[C@H]2C)c1F` (stereo in doubt) [Compound 193, 3-{[3-fluoro-2-(methylaminosulfonylamino)-4 pyridyl]methyl}-4-methyl-7-(3-pyridazinyloxy)-3,4-dihydro-2H-1-oxa-3,5 diazanaphthalen-2-one], the EC50 was under 50 nM. As for `CNS(=O)(=O)Nc1nccc(CN2C(=O)Oc3cc(Oc4nccnn4)cnc3[C@@H]2C)c1F` (stereo in doubt) [Compound 199, 3-{[3-fluoro-2-(methylaminosulfonylamino)-4-pyridyl]methyl}-4-methyl-7-(1,2,4-triazin-3-yloxy)-3,4-dihydro-2H-1-oxa-3,5-diazanaphthalen-2-one], the EC50 fell in the range of 50 to 200 nM.

The experiment is the same for the next values; noted with them: 4 nM BRAF, 10 nM MEK, 100 μM ATP; 1 hr at 25° C.; read-out: BRAF-MEK TR-FRET Assay (EC50, fold stabilization).
With `CNS(=O)(=O)Nc1cccc(CN2Cc3cc(Cl)c(OC(=O)C(C)C)cc3OC2=O)c1F` [Compound 129, 6-chloro-3-(2-fluoro-3-((N-methylsulfamoyl)amino)benzyl)-2-oxo-3,4-dihydro-2H-benzo[e][1,3]oxazin-7-yl isobutyrate], the EC50 was 200 to 1000 nM. With `CNS(=O)(=O)Nc1nccc(CN2C(=O)Oc3cc(Oc4cccnn4)cnc3C23CC3)c1F` [Compound 202, 2′-{[3-fluoro-2-(methylaminosulfonylamino)-4-pyridyl]methyl}-6′-(3-pyridazinyloxy)-2′H,3′H-4′-oxa-2′,8′-diazaspiro[cyclopropane-1,1′-naphthalen]-3′-one], the EC50 is under 50 nM. Take `CNS(=O)(=O)Nc1nccc(CN2C(=O)Oc3cc(Oc4cccnn4)ccc3C23COC3)c1F` [Compound 24, 3-({3-fluoro-2-[(methylsulfamoyl)amino]pyridin-4-yl}methyl)-7-(pyridazin-3-yloxy)-2,3-dihydrospiro[1,3-benzoxazine-4,3′-oxetan]-2-one]: the EC50 lay within 50 to 200 nM.

On to `CNS(=O)(=O)Nc1nccc(CN2C(=O)Oc3cc(Oc4cccnn4)cc(F)c3C23COC3)c1F` [Compound 178, 5-fluoro-3-{[3-fluoro-2-(methylaminosulfonylamino)-4-pyridyl]methyl}-7-(3-pyridazinyloxy)-2H, 3H-spiro[1,3-benzoxazine-4,3′-oxetan]-2-one], for which the EC50 lay within 200 to 1000 nM. Still for that read-out and setting: as for `CNS(=O)(=O)Nc1nccc(CN2C(=O)Oc3cc(Oc4ncccn4)ccc3C23CCC3)c1F` [Compound 160, 3-{[3-fluoro-2-(methylaminosulfonylamino)-4-pyridyl]methyl}-7-(2-pyrimidinyloxy)-2H,3H-spiro[1,3-benzoxazine-4,1′-cyclobutan]-2-one], the figure is 200 to 1000 nM; as for `CNS(=O)(=O)Nc1cccc(CN2Cc3cc(Cl)c(OC(=O)C4CC4)cc3OC2=O)c1F` [Compound 130, 6-chloro-3-(2-fluoro-3-((N-methylsulfamoyl)amino)benzyl)-2-oxo-3,4-dihydro-2H-benzo[e][1,3]oxazin-7-yl cyclopropanecarboxylate], 50 to 200 nM. For the molecule `CNS(=O)(=O)Nc1cccc(CN2Cc3ccc(OC(=O)C4CC4)cc3OC2=O)c1F` [Compound 147, 3-(2-fluoro-3-((N-methylsulfamoyl)amino)benzyl)-2-oxo-3,4-dihydro-2H-benzo[e][1,3]oxazin-7-yl cyclopropanecarboxylate], the EC50 lay in the range of 50 to 200 nM. Take `O=C1Oc2cc(Oc3cccnn3)ccc2C2(CCC2)N1Cc1ccnc(NS(=O)(=O)C2CC2)c1F` [Compound 163, (cyclopropylsulfonyl)[3-fluoro-4-({2-oxo-7-(3-pyridazinyloxy)-2H,3H-spiro[1,3-benzoxazine-4,1′-cyclobutan]-3-yl}methyl)-2-pyridyl]amine]: the EC50 lay in the range of 200 to 1000 nM.
